Laboratory results taken from patent publication US10799530B1, “Composition and method for the prevention and treatment of obesity” (Vector Vitale IP LLC, priority 2019, dated 2020).
“And” between values parts separate entries of the source, which are not always exact repeats. Equal values may be shown once.

Legend:
Assay type in all cases: in vivo
rats [1] = assay: Glucose tolerance test; settings: fast overnight, one value per animal
Description: A glucose tolerance test was performed to determine a potential effect of zinc isotope on the dynamics of glucose concentration in the blood flow. Experimental procedure: laboratory animals are given intragastric injections of either normal saline solution or zinc in saline solution (5 mg/kg) in a volume of 2 ml. After that, 60 minutes after the aforementioned injections, the basal level of glucose is measured and a glucose solution is injected in an amount of 3 g/kg in a volume of 2 ml using the same route of administration. The blood glucose levels are measured again 60 minutes after injecting the glucose solution.

rats [2] = assay: Serum insulin level after intraperitoneal administration; settings: intact rats; 3750 μg of zinc per 1 kg intraperitoneally every other day, 7 injections
Description: Animals are placed in cages, 4 per cage, with free access to food/water. […] Administration is performed every other day, in the amount of 7 injections per animal (intraperitoneal method of drug administration).
Samples in volume of 100 μl were incubated in microplate wells at 4° C. overnight. […] Non-specific binding sites were blocked with a 5% fat-free milk blocking solution and incubated for 1 hour at 37° C. After washing, the separate wells of the microplate were loaded with primary rabbit anti-insulin antibodies and incubated for 1 hour at 37° C. After incubation, the microplate wells were washed and loaded with appropriate secondary antibodies conjugated to horseradish peroxidase and incubated for another 1 hour at 37° C. […] The optical density was measured at 492 nm. The insulin concentrations were calculated using the calibration curve generated under the given conditions and human insulin of known concentration.)

rats [3] = assay: Area of islets of Langerhans after intraperitoneal administration; settings: intact rats, day 7 after the last administration
Description: Animals are placed in cages, 4 per cage, with free access to food/water. […] Administration is performed every other day, in the amount of 7 injections per animal (intraperitoneal method of drug administration). The dose of the drug injected to each animal was calculated on the basis of the ratio: 3750 μg of zinc per 1 kg of animal body weight.

rats [4] = assay: Body weight, food and water consumption after intraperitoneal administration; settings: intact rats; 3750 μg of zinc per 1 kg intraperitoneally every other day, 7 injections
Description: The current dose was calculated by zinc.

Row | Molecule | Glucose tolerance test, 60 min (1 h after glucose administration) (rats [1]; effector dose 5 mg/kg in 2 ml, glucose 3 g/kg body weight in 2 ml) | Glucose tolerance test, 0 min (1 h after effector administration) (rats [1]; effector dose 5 mg/kg in a volume of 2 ml) | Serum insulin levels at day 7 after the withdrawal (rats [2]) | Serum insulin levels on the first day after the drug withdrawal (rats [2]) | Area of islets of Langerhans compared to the control group and the zinc acetate group (rats [3]) | Body weight of rats (rats [4])
1 | CC(=O)[O-].CC(=O)[O-].[Zn+2] [Zn acetate, Zinc acetate, reference compound] | also dropped, though not so strongly and 7.2 and 6.9 and 7.3 and 6.8 | 4.6 and 5.2 (2×) and 4.9 and 5.1 | drop in the insulin levels to the value of those of intact/control animals | significant increase |  | 
2 | zinc asparaginate [^64Zne] |  |  | significant increase in the insulin levels | slightly higher than in the group of intact animals | significant increase in the islet area | significant increase in the body weight
